Test results taken from publication PMC9920567, “Discovery of Bis-Imidazoline Derivatives as New CXCR4 Ligands” (Molecules, 2023).
Entries after “also recorded” stand apart in the source; their conditions may differ. Read-outs that look alike come from different tables or passages of the source.

Key:
[1] = system: HIV-1 X4-28 Env; experiment: microbe, parasite or virus in culture; type: cell-based; conditions: Human immunodeficiency virus 1, 48 h, read-out: extrapolated IC50, infection with X4-28 Env
[2] = system: HIV-1 NL4-3 Env; experiment: microbe, parasite or virus in culture; type: cell-based; conditions: Human immunodeficiency virus 1, NL43, 48 h, read-out: extrapolated IC50, infection with NL4-3 Env
[3] = system: CXCR4-using HIV-1 strains; type: cell-based
[4] = target: endogenous CXCR4 (Homo sapiens, UniProt P61073); experiment: Displacement of 125I-labeled CXCL12 binding in blood mononuclear cells; conditions: blood mononuclear cells from a healthy donor, data not shown
endogenous CXCR4, sequence (P61073 whole entry): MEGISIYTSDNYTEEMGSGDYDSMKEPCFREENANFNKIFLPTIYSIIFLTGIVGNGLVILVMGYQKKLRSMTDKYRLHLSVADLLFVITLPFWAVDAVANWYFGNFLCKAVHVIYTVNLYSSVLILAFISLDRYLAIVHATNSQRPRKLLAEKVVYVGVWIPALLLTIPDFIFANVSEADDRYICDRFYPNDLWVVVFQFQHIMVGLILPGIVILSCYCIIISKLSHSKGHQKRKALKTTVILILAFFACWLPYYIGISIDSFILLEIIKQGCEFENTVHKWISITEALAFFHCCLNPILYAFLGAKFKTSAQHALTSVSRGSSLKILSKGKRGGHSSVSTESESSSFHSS

[5] = target: T1, CXCR4 (Homo sapiens, UniProt P61073); experiment: HTRF dilution series assay on CXCR4 (displacement of red-CXCL12); type: binding; conditions: for IC50: HEK293 ST-CXCR4 cells, red-CXCL12 20 nM, 2 h 16 °C, one-site competitive model, read-out: HTRF CXCR4-SDF1 IC50; for inhibition of HTRF at high concentrations: dilution series
T1 sequence (P61073 whole entry): as above
Method: To obtain information on the structural requirements necessary for the interaction with CXCR4, we performed dilution series experiments (see Section 3.4.) by varying the concentrations of bis-imidazoline compounds in the HTRF assay used for the screening campaign (Table 1 and Figure 1A).
A three-fold serial dilution in DMSO was performed for each compound. Each concentration was tested in duplicate. For these experiments, Tag-lite CXCR4 and Tag-lite CXCR7 cell lines (5000 cells per well) were used. […] The IC50 values were determined with the Prism Software version 9 (Graph-Pad Software, San Diego, USA) using a one-site competitive binding model.
Data points are means ± SEM for three independent experiments.

[6] = target: T1, CXCR4; experiment: HTRF Tag-lite primary screening: red-CXCL12 binding to HEK293 cells expressing ST-CXCR4; conditions: single dose 6.6 µg/mL (compound final concentration in µM in brackets), HTRF ratio of compound divided by that of AMD3100 15 µM, 20 nM red-CXCL12, hit < 1.3
Text: As a starting point of this study, we set up a high-throughput screening of 6851 compounds available at the time from the CERMN (Centre d’Etude et de Recherche sur le Médicament de Normandie) chemical library for their ability to interact with CXCR4 (see Section 3.3 for details). We applied a homogeneous cell-based binding assay using Homogeneous Time-Resolved Fluorescence resonance energy transfer (HTRF) Tag-lite technology. […] We investigated the capacity of the compounds to inhibit energy transfer between the Lumi4-Tb donor and acceptor red-CXCL12, which results in a decrease in the HTRF signal (i.e., the ratio between the acceptor and donor fluorescence signals at 665 and 620 nm, respectively). […] Each 384-well plate was analyzed independently. First, using negative and positive controls, the value of the Z′ factor [52] was determined. […]
All compounds are in DMSO at a concentration of 3.3 mg/mL (average concentration of 9.85 ± 3.7 mM). […] After a 2 h incubation at 16 °C, the fluorescence emission was measured at 620 nm and 665 nm using an excitation wavelength at 343 nm on a Safire2 (Tecan, Männedorf, Switzerland) microplate reader. The HTRF ratio was defined as following: Ratio = (Fluorescence intensity at 665 nm/Fluorescence intensity at 620 nm) × 10^4. […]

[7] = primary CD4+ T lymphocytes, NL4-3 and X4-28 Envs

| Structure (SMILES) | anti-HIV-1 activity [3, 7] | IC50 [5] [nM] | inhibition of HTRF at high concentrations [5] | further results |
| --- | --- | --- | --- | --- |
| C(CCCCCNC1=NCCN1)CCCCNC1=NCCN1 [mr20349] | observed | 470 ± 360 | fully inhibited HTRF | IC50 [1]: 1100 nM; IC50 [2]: 30000 nM; displacement of 125I-labeled CXCL12 binding [4]: confirmed |
| C(CCCCNC1=NCCN1)CCCCNC1=NCCN1 [mr20348] |  | 6620 ± 4310 |  |  |
| c1cc(CN2CCCNCCNCCCNCC2)ccc1CN1CCCNCCNCCCNCC1 [AMD3100, reference compound] |  |  |  | anti-HIV-1 activity [3]: by far the most potent antiviral activity of all tested molecules |
| C(CCCCCCNC1=NCCN1)CCCCCNC1=NCCN1 [mr20350] | observed; also recorded: strongest anti-HIV-1 activity |  | fully inhibited HTRF | IC50 [1]: 720 nM; IC50 [2]: 2600 nM |
| C(CCCNC1=NCCN1)CCCNC1=NCCN1 [mr20346] |  | 1850 ± 930 |  | HTRF CXCR4-SDF1 Relative HTRF Ratio [6]: 1.87 (12.6) |
| C(CCCNC1=NCCN1)CCNC1=NCCN1 [mr20345] |  | 40900 ± 23000 |  | HTRF CXCR4-SDF1 Relative HTRF Ratio [6]: 2.78 (13.0) |
| C(CCCCCNC1=NCCN1)CCCCCNC1=NCCN1 [mr34200] |  | 15500 |  |  |
| C(CCCCNC1=NCCN1)CCCNC1=NCCN1 [mr20347] | not and no effect | 350 ± 90 | fully inhibited HTRF |  |
